What was measured:
Assay type in all cases: in vivo
mice [1] = assay: Antagonism to strychnine (as sulfate); conditions: Mus musculus, ip, 4 h, read-out: ED50 Str (strychnine antagonism)
Description: (§1) Sedative effects of the compounds of this invention are shown by the following tests in mice:
Antagonism to strychnine (as sulfate): The test consists in orally administering into groups of 6 mice the test compound, and 30 minutes later 3 mg./kg. strychnine sulfate intraperitoneally. The survivors after 4 hours reflect the activity of the compound as a muscle relaxant and antispasmodic. A dosage of 3 mg./kg. of strychnine sulfate is routinely fatal to all the control mice.

mice [2] = assay: Pedestal test; conditions: Mus musculus, ip, 1 min, intraperitoneal injection, mice stay on pedestal for more than 1 minute, read-out: ED50 P (pedestal test)
Description: as §1
Pedestal test: The untreated mouse leaves a standard pedestal in less than a minute to climb back to the floor of the standard mouse box. Tranquilized mice will stay on the pedestal for more than 1 minutes.

mice [3] = assay: Chimney test; conditions: Mus musculus, ip, intraperitoneal injection, 50% of mice fail to back out of glass cylinder within 30 seconds, read-out: ED50 Ch (chimney test)
Description: as §1
Chimney test: [Med. Exp. 4, 145 (1961)]: The test determines the ability of mice to back up and out of a vertical glass cylinder within 30 seconds. At the effective dosage, 50% of the mice failed doing it.

mice [4] = assay: Dish test; conditions: Mus musculus, ip, 0.05 h, intraperitoneal injection, 50% of mice remain in dish for more than 3 minutes, read-out: ED50 D (dish test)
Description: as §1
Dish test: Mice in Petri dishes (10 cm. diameter, 5 cm. high, partially embedded in wood shavings), climb out in a very short time, when not treated. Mice remaining in the dish for more than 3 minutes indicates tranquilization. ED50 equals the dose of test compound at which 50% of the mice remain in the dish.

mice [5] = assay: Nicotine antagonism test; conditions: Mus musculus, ip, 0.5 h, intraperitoneal injection, nicotine salicylate 2 mg./kg. 30 minutes later, (3) = death, read-out: ED50 Ni (nicotine antagonism (3) test)
Description: as §1
Nicotine antagonism test: Mice in a group of 6 are injected with the text compound. Thirty minutes later the mice including control (untreated) mice are injected with nicotine salicylate (2 mg./kg.). The control mice show over-stimulation, i.e., (1) running convulsions followed by (2) tonic extensor filts; followed by (3) death.

Cc1cnc2n1-c1ccc(Cl)cc1C(c1ccccc1)=NC2 [8-chloro-1-methyl-6-phenyl-4H-imidazo[1,2-a]-[1,4]benzodiazepine]
ED50 (mice [1]): 79 mg/kg
ED50 (mice [2]): 28 mg/kg
ED50 (mice [3]): 25 mg/kg
ED50 (mice [4]): 5 mg/kg
ED50 (mice [5]): 1.8 mg/kg

Cc1cnc2n1-c1ccc(Cl)cc1C(c1ccccc1Cl)=NC2 [8-chloro-6-(2-chlorophenyl)-1-methyl-4H-imidazo[1,2-a][1,4]benzodiazepine]
ED50 (mice [1]): 1.8 mg/kg
ED50 (mice [2]): 0.4 mg/kg
ED50 (mice [3]): 0.5 mg/kg
ED50 (mice [4]): 0.23 mg/kg
ED50 (mice [5]): 0.13 mg/kg

O=Cc1cnc2n1-c1ccc(Cl)cc1C(c1ccccc1)=NC2 [8-chloro-6-phenyl-4H-imidazo[1,2-a][1,4]benzodiazepine-1-carboxaldehyde]
ED50 (mice [1]): 11 mg/kg
ED50 (mice [2]): 2.8 mg/kg
ED50 (mice [3]): 4 mg/kg
ED50 (mice [4]): 0.8 mg/kg
ED50 (mice [5]): 0.36 mg/kg

Reference: patent US3933794A, “2-(2-Alkynylamino)-3H-1,4-benzodiazepines” (priority 1973, dated 1976)
